According to patent publication US20060270648A1, “USE OF POLYAMINES WITH ANTIBIOTICS” (priority 2005, published 2006):
≈ marks a conversion by molar mass, not a printed value. Like-named read-outs stand apart in the source and are kept apart here.

Experiments:
[1] = system: E. coli (K10, K12, C921-61); assay: MIC of antibiotics against E. coli strains with or without polyamines (FIG. 3); type: cell-based; conditions: E. coli K10, K12, C921-61 and S. typhimurium LT2
Description: (§1) Various strains of bacteria, including P. aeruginosa and e. coli were grown on Luria-Bertani (LB) agar/broth or Mueller-Hinton (MH) agar/broth. […] The antibiotics, chemicals, and/or polyamines were dissolved in double distilled water or solvent and thereafter filtered through a 0.4 μm disposable membranes.
(§2) The MIC values of the strains associated with various combinations of polyamines and antibiotics were determined using standard two-fold agar dilutions techniques and broth dilutions techniques in Mueller-Hinton broth. The lowest concentration of drug with no visible turbidity was deemed the MIC.

[2] = system: Salmonella typhimurium LT2; assay: microbe, parasite or virus in culture; conditions: Salmonella enterica, read-out: MICs in the indicated concentrations (mM) of polyamines: No add;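 also: Two-fold agar or broth dilution in Mueller-Hinton broth, MIC taken as lowest drug concentration without visible turbidity, tested alone or combined with polyamines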
Description: as §1, §2

[3] = system: Salmonella typhimurium LT2; conditions: for MICs in the indicated concentrations (mM) of polyamines: Spermine (1 mM): with 1 mM spermine; for MICs in the indicated concentrations (mM) of polyamines: Spermidine (20 mM): with 20 mM spermidine;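 as to all read-outs here: Two-fold agar or broth dilution in Mueller-Hinton broth, MIC taken as lowest drug concentration without visible turbidity, tested alone or combined with polyamines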
Description: as §1, §2

P. aeruginosa PAO1 [4] = assay: MIC of antibiotics against P. aeruginosa PAO1 with or without polyamines; type: cell-based; conditions: for MIC values in the presence versus the absence of polyamines: hydrophobic antibiotics (FIG. 1)
Description: as §1, §2

[5] = system: outer membrane permeability; assay: Outer membrane permeabilization assay (β-lactamase activity in whole cells or released into suspension); type: cell-based; conditions: for β-lactamase activity detected: 20 mM (FIG. 7)
Description: The β-lactamase activity was determined by a spectrophotometric method using nitrocefin as a substrate. After the β-lactamase was extracted from the cells, the β-lactamase activity was monitored by absorbance changes in wavelength at 486 nm with a molar extinction coefficient of 20500. The extent of hydrolysis was a reflection of the amount of enzyme remaining uninhibited.
An outer membrane permeabilization assay was performed by examining the release of the chromosomally encoded β-lactamase. Briefly, stationary phase cells were diluted 1:59 into 20 mL pre-warmed MMP broth and cultured in an incubator at 350 rpm and at 37 C for 5 hours. After carbenicillin (200 μg/mL) was added to induce β-lactamase activity, the culture was incubated for additional 5 hours. The cells were harvested by centrifugation at 5,000×g for 10 minutes and washed once with 0.05M sodium phosphate buffer at pH 7.2. The cell pellet was resuspended in 5 mL of the same buffer and divided into 1 mL aliquots. […] […] The reaction mixtures were incubated at room temperature for 5 minutes and immediately centrifuged at full speed (15000×g) for 20 minutes and the supernatant was used for β-lactamase sources. β-lactamase activity was determined as described above using 300 μL of the supernatant.

P. aeruginosa PAO1 [6] = assay: Time killing assay of P. aeruginosa PAO1 in human serum (FIG. 4); type: cell-based
Description: Time-killing assays were performed for various bacteria samples. Briefly, the tested bacteria were grown to mid-log phase in Mueller-Hinton broth media. […] As a control group, cells were diluted in a sodium phosphate without any additional compounds. Aliquots were withdrawn at specific time intervals and spread on LB agar plates and incubated overnight at 37 C. The percent of colonies that survived were determined relative to the control.

[7] = system: methicillin resistant Staphylococcus aureus (MRSA) Mu50; assay: MIC of antibiotics against MRSA Mu50 with or without spermine; type: cell-based; conditions: for MICs in the presence or absence of spermine (1 mM): Spermine: with 1 mM spermine
[8] = system: MRSA Staphylococcus aureus 700699; assay: MIC of antibiotics against MRSA Staphylococcus aureus 700699 with or without spermine; type: cell-based
E. coli K10 = assay: MIC of carbenicillin against E. coli K10 with divalent ions or salt and polyamines; type: cell-based; conditions: Escherichia coli, read-out: MICs to carbenicillin
Description: as §1, §2

## CC[C@H]1OC(=O)[C@H](C)[C@@H](O[C@H]2C[C@@](C)(OC)[C@@H](O)[C@H](C)O2)[C@H](C)[C@@H](O[C@@H]2O[C@H](C)C[C@H](N(C)C)[C@H]2O)[C@](C)(O)C[C@@H](C)C(=O)[C@H](C)[C@@H](O)[C@]1(C)O [Erythromycin]
[1]
  susceptibility with the combination of polyamines and antibiotics: improved susceptibility
[2]
  MIC: 64 µg/mL (≈ 87.2 µM)
[3]
  MICs in the indicated concentrations (mM) of polyamines: Spermine (1 mM): 32 µg/mL
  MICs in the indicated concentrations (mM) of polyamines: Spermidine (20 mM): 64 µg/mL
P. aeruginosa PAO1 [4]
  MIC values in the presence versus the absence of polyamines: identical

## CO[C@@H]1[C@@H](OC(N)=O)[C@@H](O)[C@H](Oc2ccc3c(O)c(NC(=O)c4ccc(O)c(CC=C(C)C)c4)c(=O)oc3c2C)OC1(C)C [Novobiocin]
[1]
  susceptibility with the combination of polyamines and antibiotics: improved susceptibility
[2]
  MIC: > 1020 µg/mL
[3]
  MICs in the indicated concentrations (mM) of polyamines: Spermine (1 mM): 1024 µg/mL
  MICs in the indicated concentrations (mM) of polyamines: Spermidine (20 mM): 256 µg/mL
P. aeruginosa PAO1 [4]
  MIC values in the presence versus the absence of polyamines: identical

## O=C(O)CN(CCN(CC(=O)O)CC(=O)O)CC(=O)O [EDTA]
[5]; 0.5 mM (FIG. 6)
  release of periplasmic β-lactamase into the suspension solution: can be detected
[5]; 1 mM (FIG. 6)
  release of periplasmic β-lactamase into the suspension solution: increased

## NCCCNCCCCNCCCN [Spermine]
[5]
  β-lactamase activity detected: only a very low level
P. aeruginosa PAO1 [6]; presence or absence of 2 mM spermine
  growth of P. aeruginosa PAO1 in human serum: not affected
P. aeruginosa PAO1 [4]; 0 mM polyamine
  MICs to carbenicillin in the indicated concentration of polyamines: 64 µg/mL
P. aeruginosa PAO1 [4]; 0.5 mM polyamine
  MICs to carbenicillin in the indicated concentration of polyamines: 16 µg/mL
P. aeruginosa PAO1 [4]; 1 mM polyamine
  MICs to carbenicillin in the indicated concentration of polyamines: 4 µg/mL
P. aeruginosa PAO1 [4]; 5 mM polyamine
  MICs to carbenicillin in the indicated concentration of polyamines: 4 µg/mL
P. aeruginosa PAO1 [4]; 10 mM polyamine
  MICs to carbenicillin in the indicated concentration of polyamines: 4 µg/mL
P. aeruginosa PAO1 [4]; 20 mM polyamine
  MICs to carbenicillin in the indicated concentration of polyamines: 4 µg/mL

## CC(=O)O[C@H]1C[C@@]2(C)[C@@H](C[C@@H](O)[C@H]3[C@@]4(C)CC[C@@H](O)[C@@H](C)[C@@H]4CC[C@@]32C)/C1=C(\CCC=C(C)C)C(=O)O [Fusidic acid]
[1]
  susceptibility with the combination of polyamines and antibiotics: improved susceptibility
[2]
  MIC: > 1020 µg/mL
[3]
  MICs in the indicated concentrations (mM) of polyamines: Spermine (1 mM): 1024 µg/mL
  MICs in the indicated concentrations (mM) of polyamines: Spermidine (20 mM): 1024 µg/mL
P. aeruginosa PAO1 [4]
  MIC values in the presence versus the absence of polyamines: identical

## Polymyxin B
[5]; 100 μg/mL applied to the cell suspension (FIG. 5)
  β-lactamase activities detected in the whole cells: significant activities
[7]
  MICs in the presence or absence of spermine (1 mM): Spermine: 64 µg/mL

## NCCCCNCCCN [Spermidine]
[5]
  β-lactamase activity detected: only a very low level
P. aeruginosa PAO1 [4]; 0 mM polyamine
  MICs to carbenicillin in the indicated concentration of polyamines: 64 µg/mL
P. aeruginosa PAO1 [4]; 0.5 mM polyamine
  MICs to carbenicillin in the indicated concentration of polyamines: 32 µg/mL
P. aeruginosa PAO1 [4]; 1 mM polyamine
  MICs to carbenicillin in the indicated concentration of polyamines: 16 µg/mL
P. aeruginosa PAO1 [4]; 5 mM polyamine
  MICs to carbenicillin in the indicated concentration of polyamines: 16 µg/mL
P. aeruginosa PAO1 [4]; 10 mM polyamine
  MICs to carbenicillin in the indicated concentration of polyamines: 8 µg/mL
P. aeruginosa PAO1 [4]; 20 mM polyamine
  MICs to carbenicillin in the indicated concentration of polyamines: 4 µg/mL

## CC1(C)S[C@@H]2[C@H](NC(=O)C(C(=O)O)c3ccccc3)C(=O)N2[C@H]1C(=O)O (some centres unmarked) [Carbenicillin]
[8]; Staphylococcus aureus, MRSA, no spermine, read-out: MICs in the absence or presence of spermine: No add
  MIC: 256 µg/mL
[8]; with 1 mM spermine
  MICs in the absence or presence of spermine: Spermine (1 mM): 4 µg/mL
[1]
  susceptibility with the combination of polyamines and antibiotics: improved susceptibility
[2]
  MIC: 8 µg/mL (≈ 21.1 µM)
[3]
  MICs in the indicated concentrations (mM) of polyamines: Spermine (1 mM): 1 µg/mL
  MICs in the indicated concentrations (mM) of polyamines: Spermidine (20 mM): 2 µg/mL
E. coli K10; K10, MHB + 1 mM CaCl2, Spermidine (10 mM)
  MIC: 2 µg/mL
E. coli K10; K10, MHB + 1 mM CaCl2, Spermine (1 mM)
  MIC: 1 µg/mL
E. coli K10; K10, MHB + 1 mM CaCl2, no polyamine
  MIC: 16 µg/mL
E. coli K10; K10, MHB + 1 mM MgSO4, Spermidine (10 mM)
  MIC: 4 µg/mL
E. coli K10; K10, MHB + 1 mM MgSO4, Spermine (1 mM)
  MIC: 1 µg/mL
E. coli K10; K10, MHB + 1 mM MgSO4, no polyamine
  MIC: 16 µg/mL
E. coli K10; K10, MHB + 3 mM CaCl2, Spermidine (10 mM)
  MIC: 4 µg/mL
E. coli K10; K10, MHB + 3 mM CaCl2, Spermine (1 mM)
  MIC: 4 µg/mL
E. coli K10; K10, MHB + 3 mM CaCl2, no polyamine
  MIC: 16 µg/mL
E. coli K10; K10, MHB + 3 mM MgSO4, Spermidine (10 mM)
  MIC: 4 µg/mL
E. coli K10; K10, MHB + 3 mM MgSO4, Spermine (1 mM)
  MIC: 4 µg/mL
E. coli K10; K10, MHB + 3 mM MgSO4, no polyamine
  MIC: 16 µg/mL
E. coli K10; K10, MHB + 100 mM NaCl, Spermidine (10 mM)
  MIC: 4 µg/mL
E. coli K10; K10, MHB + 100 mM NaCl, Spermine (1 mM)
  MIC: 4 µg/mL
E. coli K10; K10, MHB + 100 mM NaCl, no polyamine
  MIC: 16 µg/mL
E. coli K10; K10, MHB + 150 mM NaCl, Spermidine (10 mM)
  MIC: 4 µg/mL
E. coli K10; K10, MHB + 150 mM NaCl, Spermine (1 mM)
  MIC: 4 µg/mL
E. coli K10; K10, MHB + 150 mM NaCl, no polyamine
  MIC: 16 µg/mL
E. coli K10; K10, MHB medium, no supplement, Spermidine (10 mM)
  MIC: 4 µg/mL
E. coli K10; K10, MHB medium, no supplement, Spermine (1 mM)
  MIC: 1 µg/mL
E. coli K10; K10, MHB medium, no supplement, no polyamine
  MIC: 16 µg/mL
[7]; Staphylococcus aureus, MRSA, no spermine, read-out: MICs in the presence or absence of spermine (1 mM): No add
  MIC: 256 µg/mL
[7]
  MICs in the presence or absence of spermine (1 mM): Spermine: 4 µg/mL
P. aeruginosa PAO1 [6]; 16 μg/mL carbenicillin alone
  growth of P. aeruginosa PAO1 in human serum: initial inhibition, this inhibition was followed by a full recovery of growth
P. aeruginosa PAO1 [6]; 2 mM spermine added along with 16 μg/mL carbenicillin, 24 hours
  percent of the inoculants killed in human serum: more than 99%
